Measured values from ChEMBL document CHEMBL3885861, “Open TG-GATES”.

Species: Rattus norvegicus
Test: Open TG-GATES - Regimen: Daily Repeat
Assay type: toxicity, organism-based, Sprague-Dawley
Parameters: regimen Daily Repeat, gender Male, age 6 weeks
Settings: in vivo, po, 300 mg/kg, route gavage, dose level High; for APTT / Bas / Eos / Fbg / Hb / Ht / Lym / MCH / MCHC / MCV / Mono / Neu / PT / Plat / RBC / Ret / WBC: tissue Blood; for KIDNEY_L / KIDNEY_R / KIDNEY_TOTAL: tissue Kidney; for LIVER: tissue Liver; for A/G / ALP / ALT / AST / BUN / CRE / Ca / Cl / DBIL / GLC / IP / K / LDH / Na / PL / RALB / TBIL / TC / TG / TP / gamma-GTP: tissue Plasma

Cc1cccc(Nc2ccccc2C(=O)O)c1C [MEFENAMIC ACID] was tested, and the TERMINAL_BW (72 h, time 3 day) was 221.3 g, the APTT (72 h, time 3 day) was 18.9 s and the Bas (72 h, time 3 day) was 0%. For the same compound, the Eos (72 h, time 3 day) was 1%, the Fbg (72 h, time 3 day) was 345 mg/dL and the Hb (72 h, time 3 day) was 9.4 g/dL. The Ht (72 h, time 3 day) was 28%, the Lym (72 h, time 3 day) was 61.8% and the MCH (72 h, time 3 day) was 21.6 pg. It also gave an MCHC (72 h, time 3 day) of 33.5%, an MCV (72 h, time 3 day) of 64.6 fL and a Mono (72 h, time 3 day) of 3.8%. The Neu (72 h, time 3 day) was 28.4%, the PT (72 h, time 3 day) was 11.3 s and the Plat (72 h, time 3 day) was 117.3 x10_4/uL. The RBC (72 h, time 3 day) was 434.2 x10_4/ul, the Ret (72 h, time 3 day) was 13.5% and the WBC (72 h, time 3 day) was 154.9 x10_2/uL. It also gave a KIDNEY_L (72 h, time 3 day) of 1 g, a KIDNEY_R (72 h, time 3 day) of 1 g and a KIDNEY_TOTAL (72 h, time 3 day) of 2 g. The LIVER (72 h, time 3 day) was 11 g, the A/G (72 h, time 3 day) was 1.2 and the ALP (72 h, time 3 day) was 624.6 IU/L. It also gave an ALT (72 h, time 3 day) of 28.6 IU/L, an AST (72 h, time 3 day) of 54.6 IU/L and a BUN (72 h, time 3 day) of 15 mg/dL. For the same compound, the CRE (72 h, time 3 day) was 0.4 mg/dL, the Ca (72 h, time 3 day) was 10.7 mg/dL and the Cl (72 h, time 3 day) was 103.4 meq/L. For the same compound, the DBIL (72 h, time 3 day) was 0.08 mg/dL, the GLC (72 h, time 3 day) was 175 mg/dL and the IP (72 h, time 3 day) was 6.7 mg/dL. It also gave a K (72 h, time 3 day) of 4.1 meq/L, an LDH (72 h, time 3 day) of 155.2 IU/L and a Na (72 h, time 3 day) of 140.2 meq/L. The PL (72 h, time 3 day) was 170.6 mg/dL, the RALB (72 h, time 3 day) was 2.7 g/dL and the TBIL (72 h, time 3 day) was 0.1 mg/dL. The TC (72 h, time 3 day) was 88.4 mg/dL, the TG (72 h, time 3 day) was 161.8 mg/dL and the TP (72 h, time 3 day) was 4.9 g/dL. It also gave a gamma-GTP (72 h, time 3 day) of 1.2 IU/L, a TERMINAL_BW ([…], time 7 day) of 251.1 g and a TERMINAL_BW ([…], time 14 day) of 275.2 g. For the same compound, the TERMINAL_BW ([…], time 28 day) was 342.8 g, the APTT ([…], time 7 day) was 17.3 s and the Bas ([…], time 7 day) was 0%. The Eos ([…], time 7 day) was 1%, the Fbg ([…], time 7 day) was 304.2 mg/dL and the Hb ([…], time 7 day) was 11.1 g/dL. It also gave a Ht ([…], time 7 day) of 32.3%, a Lym ([…], time 7 day) of 63.6% and an MCH ([…], time 7 day) of 22 pg. It also gave an MCHC ([…], time 7 day) of 34.4%, an MCV ([…], time 7 day) of 64.1 fL and a Mono ([…], time 7 day) of 3.4%. It also gave a Neu ([…], time 7 day) of 28.2%, a PT ([…], time 7 day) of 11.5 s and a Plat ([…], time 7 day) of 160 x10_4/uL. The RBC ([…], time 7 day) was 506.4 x10_4/ul, the Ret ([…], time 7 day) was 14.9% and the WBC ([…], time 7 day) was 201.4 x10_2/uL. For the same compound, the APTT ([…], time 14 day) was 19.6 s, the Bas ([…], time 14 day) was 0% and the Eos ([…], time 14 day) was 1%. It also gave a Fbg ([…], time 14 day) of 291.8 mg/dL, a Hb ([…], time 14 day) of 11.2 g/dL and a Ht ([…], time 14 day) of 33.5%. It also gave a Lym ([…], time 14 day) of 56.8%, an MCH ([…], time 14 day) of 23.9 pg and an MCHC ([…], time 14 day) of 33.2%. For the same compound, the MCV ([…], time 14 day) was 71.9 fL, the Mono ([…], time 14 day) was 2.8% and the Neu ([…], time 14 day) was 37.2%. The PT ([…], time 14 day) was 11.9 s, the Plat ([…], time 14 day) was 200.5 x10_4/uL and the RBC ([…], time 14 day) was 466.8 x10_4/ul. The Ret ([…], time 14 day) was 18.8%, the WBC ([…], time 14 day) was 198.5 x10_2/uL and the APTT ([…], time 28 day) was 19 s. It also gave a Bas ([…], time 28 day) of 0%, an Eos ([…], time 28 day) of 0.8% and a Fbg ([…], time 28 day) of 318 mg/dL. The Hb ([…], time 28 day) was 10 g/dL, the Ht ([…], time 28 day) was 32.3% and the Lym ([…], time 28 day) was 54.2%. For the same compound, the MCH ([…], time 28 day) was 21.1 pg, the MCHC ([…], time 28 day) was 30.8% and the MCV ([…], time 28 day) was 68.5 fL. The Mono ([…], time 28 day) was 2.8%, the Neu ([…], time 28 day) was 39.2% and the PT ([…], time 28 day) was 11.6 s. For the same compound, the Plat ([…], time 28 day) was 186.5 x10_4/uL, the RBC ([…], time 28 day) was 473 x10_4/ul and the Ret ([…], time 28 day) was 22.3%. It also gave a WBC ([…], time 28 day) of 274.1 x10_2/uL, a KIDNEY_L ([…], time 7 day) of 1.2 g and a KIDNEY_R ([…], time 7 day) of 1.1 g. The KIDNEY_TOTAL ([…], time 7 day) was 2.3 g, the KIDNEY_L ([…], time 14 day) was 1.2 g and the KIDNEY_R ([…], time 14 day) was 1.2 g. It also gave a KIDNEY_TOTAL ([…], time 14 day) of 2.4 g, a KIDNEY_L ([…], time 28 day) of 1.4 g and a KIDNEY_R ([…], time 28 day) of 1.4 g. For the same compound, the KIDNEY_TOTAL ([…], time 28 day) was 2.8 g, the LIVER ([…], time 7 day) was 12.2 g and the LIVER ([…], time 14 day) was 13.3 g. For the same compound, the LIVER ([…], time 28 day) was 15.2 g, the A/G ([…], time 7 day) was 1.3 and the ALP ([…], time 7 day) was 574.4 IU/L. For the same compound, the ALT ([…], time 7 day) was 29.6 IU/L, the AST ([…], time 7 day) was 60.6 IU/L and the BUN ([…], time 7 day) was 15.8 mg/dL. For the same compound, the CRE ([…], time 7 day) was 0.4 mg/dL, the Ca ([…], time 7 day) was 10.3 mg/dL and the Cl ([…], time 7 day) was 103.6 meq/L. It also gave a DBIL ([…], time 7 day) of 0.084 mg/dL, a GLC ([…], time 7 day) of 197.2 mg/dL and an IP ([…], time 7 day) of 7.3 mg/dL. The K ([…], time 7 day) was 3.9 meq/L, the LDH ([…], time 7 day) was 227.8 IU/L and the Na ([…], time 7 day) was 140.6 meq/L. The PL ([…], time 7 day) was 150.4 mg/dL, the RALB ([…], time 7 day) was 2.9 g/dL and the TBIL ([…], time 7 day) was 0.1 mg/dL. It also gave a TC ([…], time 7 day) of 79.4 mg/dL, a TG ([…], time 7 day) of 136.4 mg/dL and a TP ([…], time 7 day) of 5 g/dL. It also gave a gamma-GTP ([…], time 7 day) of 1 IU/L, an A/G ([…], time 14 day) of 1.2 and an ALP ([…], time 14 day) of 476.5 IU/L. It also gave an ALT ([…], time 14 day) of 30 IU/L, an AST ([…], time 14 day) of 57.2 IU/L and a BUN ([…], time 14 day) of 19.2 mg/dL. The CRE ([…], time 14 day) was 0.5 mg/dL, the Ca ([…], time 14 day) was 10.4 mg/dL and the Cl ([…], time 14 day) was 104 meq/L. It also gave a DBIL ([…], time 14 day) of 0.1 mg/dL, a GLC ([…], time 14 day) of 187.5 mg/dL and an IP ([…], time 14 day) of 6.5 mg/dL. It also gave a K ([…], time 14 day) of 4.4 meq/L, an LDH ([…], time 14 day) of 145.2 IU/L and a Na ([…], time 14 day) of 141.5 meq/L. For the same compound, the PL ([…], time 14 day) was 162.2 mg/dL, the RALB ([…], time 14 day) was 2.9 g/dL and the TBIL ([…], time 14 day) was 0.1 mg/dL. For the same compound, the TC ([…], time 14 day) was 78 mg/dL, the TG ([…], time 14 day) was 170.2 mg/dL and the TP ([…], time 14 day) was 5.2 g/dL. The gamma-GTP ([…], time 14 day) was 1.8 IU/L, the A/G ([…], time 28 day) was 1.2 and the ALP ([…], time 28 day) was 382.8 IU/L. For the same compound, the ALT ([…], time 28 day) was 30.8 IU/L, the AST ([…], time 28 day) was 68.2 IU/L and the BUN ([…], time 28 day) was 20.5 mg/dL. The CRE ([…], time 28 day) was 0.5 mg/dL, the Ca ([…], time 28 day) was 10.4 mg/dL and the Cl ([…], time 28 day) was 104.2 meq/L. It also gave a DBIL ([…], time 28 day) of 0.1 mg/dL, a GLC ([…], time 28 day) of 190.5 mg/dL and an IP ([…], time 28 day) of 6.6 mg/dL. It also gave a K ([…], time 28 day) of 3.7 meq/L, an LDH ([…], time 28 day) of 166.2 IU/L and a Na ([…], time 28 day) of 141.2 meq/L. It also gave a PL ([…], time 28 day) of 176.8 mg/dL, an RALB ([…], time 28 day) of 2.9 g/dL and a TBIL ([…], time 28 day) of 0.2 mg/dL. It also gave a TC ([…], time 28 day) of 87.2 mg/dL, a TG ([…], time 28 day) of 212 mg/dL and a TP ([…], time 28 day) of 5.3 g/dL. The gamma-GTP ([…], time 28 day) was 2 IU/L.
